Data from patent publication US20210323977A1, “PYRROLIDINYL AMIDE COMPOUNDS FOR THE TREATMENT OF AUTOIMMUNE DISEASE” (Hoffmann-La Roche Inc., priority 2018, published 2021).

molecular target: T1, human TLR8 (Homo sapiens, UniProt Q9NR97); experiment: HEK293-Blue-hTLR-8 cells assay; format: cell-based; conditions: HEK293-Blue-hTLR8 cells, SEAP reporter, R848 stimulation, 20 hrs
T1 sequence (Q9NR97 27-1041): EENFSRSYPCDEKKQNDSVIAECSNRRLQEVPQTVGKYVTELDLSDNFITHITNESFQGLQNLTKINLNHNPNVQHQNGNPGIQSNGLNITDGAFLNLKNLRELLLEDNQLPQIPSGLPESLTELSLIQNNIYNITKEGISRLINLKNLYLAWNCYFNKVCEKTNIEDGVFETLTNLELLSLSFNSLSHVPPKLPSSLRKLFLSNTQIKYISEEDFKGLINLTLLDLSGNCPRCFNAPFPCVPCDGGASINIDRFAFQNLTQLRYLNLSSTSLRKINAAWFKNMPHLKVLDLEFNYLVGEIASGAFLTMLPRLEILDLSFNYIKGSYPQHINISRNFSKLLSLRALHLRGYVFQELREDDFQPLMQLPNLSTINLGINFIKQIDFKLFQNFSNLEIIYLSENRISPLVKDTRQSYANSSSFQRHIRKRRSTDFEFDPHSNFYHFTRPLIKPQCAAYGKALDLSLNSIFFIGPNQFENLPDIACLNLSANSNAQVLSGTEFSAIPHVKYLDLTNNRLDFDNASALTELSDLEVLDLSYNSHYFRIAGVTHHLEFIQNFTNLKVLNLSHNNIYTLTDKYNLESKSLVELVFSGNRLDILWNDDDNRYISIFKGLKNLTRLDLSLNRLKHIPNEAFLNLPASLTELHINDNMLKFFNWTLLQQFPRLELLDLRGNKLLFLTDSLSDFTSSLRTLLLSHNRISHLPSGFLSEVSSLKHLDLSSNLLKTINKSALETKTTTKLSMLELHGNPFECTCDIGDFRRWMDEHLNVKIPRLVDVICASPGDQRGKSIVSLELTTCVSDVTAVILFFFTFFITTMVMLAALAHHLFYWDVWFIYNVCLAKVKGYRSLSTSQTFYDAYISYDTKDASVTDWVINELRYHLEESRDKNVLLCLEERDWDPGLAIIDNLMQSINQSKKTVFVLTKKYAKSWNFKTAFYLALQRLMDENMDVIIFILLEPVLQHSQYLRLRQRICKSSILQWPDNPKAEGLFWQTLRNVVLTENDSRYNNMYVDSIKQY
Text: HEK293-Blue-hTLR-8 Cells Assay:
A stable HEK293-Blue-hTLR-8 cell line was purchased from InvivoGen (Cat. #: hkb-htlr8, San Diego, Calif., USA). These cells were originally designed for studying the stimulation of human TLR8 by monitoring the activation of NF-κB. A SEAP (secreted embryonic alkaline phosphatase) reporter gene was placed under the control of the IFN-β minimal promoter fused to five NF-κB and AP-1-binding sites. The SEAP was induced by activating NF-κB and AP-1 via stimulating HEK-Blue hTLR8 cells with TLR8 ligands. Therefore the reporter expression was declined by TLR8 antagonist under the stimulation of a ligand, such as R848, for incubation of 20 hrs. The cell culture supernatant SEAP reporter activity was determined using QUANTI-Blue™ kit (Cat. #: rep-qb1, Invivogen, San Diego, Ca, USA) at a wavelength of 640 nm, a detection medium that turns purple or blue in the presence of alkaline phosphatase.
HEK293-Blue-hTLR8 cells were incubated at a density of 250,000-450,000 cells/mL in a volume of 170 μL in a 96-well plate in Dulbecco's Modified Eagle's medium (DMEM) containing 4.5 g/L glucose, 50 U/mL penicillin, […], […], 2 mM L-glutamine, 10% (v/v) heat-inactivated fetal bovine serum with addition of 20 μL test compound in a serial dilution in the presence of final DMSO at 1% and 10 sL of 60 uM R848 in above DMEM, perform incubation under 37° C. in a CO2 incubator for 20 hrs. Then 20 μL of the supernatant from each well was incubated with 180 sL Quanti-blue substrate solution at 37° C. for 2 hrs and the absorbance was read at 620˜655 nm using a spectrophotometer. The signalling pathway that TLR8 activation leads to downstream NF-κB activation has been widely accepted, and therefore similar reporter assay was modified for evaluating TLR8 antagonist.

SMILES | IC50
N[C@@H]1CCC[C@H](NC(=O)C2CN(c3ccc(C(F)(F)F)c4nccnc34)CC23CC3)C1 (relative stereo) [Example 43, Cis-N-(3-aminocyclohexyl)-5-[8-(trifluoromethyl)quinoxalin-5-yl]-5-azaspiro[2.4]heptane-7-carboxamide] | 124 nM
CN1CCC(NC(=O)C2CN(c3ccc(C#N)c4nccnc34)CC23CC3)CC1 (single isomer, unassigned) [Example 7A, 5-(8-Cyanoquinoxalin-5-yl)-N-(1-methyl-4-piperidyl)-5-azaspiro[2.4]heptane-7-carboxamide] | 7 nM
N#Cc1ccc(N2CC(C(=O)NC[C@H]3CNCCO3)C3(CC3)C2)c2nccnc12 (single isomer, unassigned) [Example 70B] | 168 nM
CN1CCC(NC(=O)[C@@H]2CN(c3ccc(C#N)c4ncccc34)C[C@H]2C(F)F)CC1 (relative stereo) [Example 40, Trans-1-(8-cyano-5-quinolyl)-4-(difluoromethyl)-N-(1-methyl-4-piperidyl)pyrrolidine-3-carboxamide] | 134 nM
N#Cc1ccc(N2CC(C(=O)NC3CCCNCC3)C(C(F)(F)F)C2)c2cccnc12 (single isomer, unassigned) [Example 30A, N-(azepan-4-yl)-1-(8-cyano-5-quinolyl)-4-(trifluoromethyl)pyrrolidine-3-carboxamide] | 67 nM
CC(C)[C@@H]1CN(c2ccc(C#N)c3ncccc23)C[C@H]1C(=O)NC1CCN(C)CC1 (relative stereo) [Example 37, Trans-1-(8-cyano-5-quinolyl)-4-isopropyl-N-(1-methyl-4-piperidyl)pyrrolidine-3-carboxamide] | 489 nM
C[C@@H]1CN(c2ccc(C#N)c3ncccc23)C[C@H]1C(=O)N1CCC2(CCNCC2)CC1 (relative stereo) [Example 32, Trans-5-[3-(3,9-diazaspiro[5.5]undecane-3-carbonyl)-4-methyl-pyrrolidin-1-yl]quinoline-8-carbonitrile] | 213 nM
C[C@@H]1CN(c2ccc(C#N)c3ncccc23)C[C@H]1C(=O)N1CCC2(CCNC2)C1 (relative stereo) [Example 53, Trans-5-[3-(2,7-diazaspiro[4.4]nonane-2-carbonyl)-4-methyl-pyrrolidin-1-yl]quinoline-8-carbonitrile] | 225 nM
C[C@H]1CN(c2ccc(C(F)(F)F)c3nccnc23)C[C@@H]1C(=O)NC1CCN(C)CC1 [Example 5, (3R,4R)-4-methyl-N-(1-methyl-4-piperidyl)-1-[8-(trifluoromethyl)quinoxalin-5-yl]pyrrolidine-3-carboxamide] | 11 nM
CN1CC(NC(=O)C2CN(c3ccc(C(F)(F)F)c4nccnc34)CC23CC3)C2(CC2)C1 (stereo not shown) [Example 20, N-(5-methyl-5-azaspiro[2.4]heptan-7-yl)-5-[8-(trifluoromethyl)quinoxalin-5-yl]-5-azaspiro[2.4]heptane-7-carboxamide] | 369 nM
CN1CCC(NC(=O)C2CN(c3ccc(C#N)c4ncccc34)CC2C(F)(F)F)CC1 (stereo not shown) [Example 18, 1-(8-Cyano-5-quinolyl)-N-(1-methyl-4-piperidyl)-4-(trifluoromethyl)pyrrolidine-3-carboxamide] | 75 nM
C[C@@H]1CN(c2ccc(C#N)c3ncccc23)C[C@H]1C(=O)N[C@H]1CNC[C@H]1F [Example 56, Trans-1-(8-cyano-5-quinolyl)-N-[(3S,4R)-4-fluoropyrrolidin-3-yl]-4-methyl-pyrrolidine-3-carboxamide] | 373 nM
Cc1ccc(N2C[C@H](C(=O)NC3CCN(C)CC3)[C@@H](C)C2)c2nccnc12 [Example 33, (3R,4R)-4-Methyl-N-(1-methyl-4-piperidyl)-1-(8-methylquinoxalin-5-yl)pyrrolidine-3-carboxamide] | 75 nM
N[C@H]1CC[C@@H](NC(=O)C2CN(c3ccc(C(F)(F)F)c4nccnc34)CC23CC3)CC1 (stereo partly shown) [Example 39, N-(4-Aminocyclohexyl)-5-[8-(trifluoromethyl)quinoxalin-5-yl]-5-azaspiro[2.4]heptane-7-carboxamide] | 447 nM
O=C(NC1CC2COCC(C1)N2)C1CN(c2ccc(C(F)(F)F)c3nccnc23)CC12CC2 (stereo not shown) [Example 6, N-(3-oxa-9-azabicyclo[3.3.1]nonan-7-yl)-5-[8-(trifluoromethyl)quinoxalin-5-yl]-5-azaspiro[2.4]heptane-7-carboxamide] | 291 nM
N#Cc1ccc(N2CC(C(=O)NC[C@H]3CNCCO3)C3(CC3)C2)c2nccnc12 (single isomer, unassigned) [Example 70A] | 34 nM
CN1CCC(NC(=O)[C@@H]2CN(c3ccc(Cl)c4ncccc34)C[C@H]2C(F)(F)F)CC1 (relative stereo) [Example 46, Trans-1-(8-chloro-5-quinolyl)-N-(1-methyl-4-piperidyl)-4-(trifluoromethyl)pyrrolidine-3-carboxamide] | 51 nM
CN1CCC(NC(=O)C2CN(c3ccc(C(F)(F)F)c4nccnc34)CC23CC3)CC1 (stereo not shown) [Example 11, N-(1-methyl-4-piperidyl)-5-[8-(trifluoromethyl)quinoxalin-5-yl]-5-azaspiro[2.4]heptane-7-carboxamide] | 30 nM
C[C@H]1CN(c2ccc(Cl)c3ncccc23)C[C@@H]1C(=O)NC1CCN(C)CC1 [Example 50, (3R,4R)-1-(8-chloro-5-quinolyl)-4-methyl-N-(1-methyl-4-piperidyl)pyrrolidine-3-carboxamide] | 147 nM
CN1CCC(NC(=O)[C@H]2CN(c3ccc(C#N)c4ncccc34)C[C@@H]2C(F)(F)F)CC1 [Example 4, (3R,4R)-1-(8-cyano-5-quinolyl)-N-(1-methyl-4-piperidyl)-4-(trifluoromethyl)pyrrolidine-3-carboxamide] | 25 nM
C[C@@H]1CN(c2ccc(C(F)(F)F)c3nccnc23)C[C@H]1C(=O)NC1CCN(C)CC1 [Example 25, (3S,4S)-4-Methyl-N-(1-methyl-4-piperidyl)-1-[8-(trifluoromethyl)quinoxalin-5-yl]pyrrolidine-3-carboxamide] | 152 nM
N[C@@H]1C[C@H](NC(=O)C2CN(c3ccc(C(F)(F)F)c4nccnc34)CC23CC3)[C@@H]2C[C@@H]21 (stereo partly drawn) [Example 36, N-[(1R,2S,4R,5S)-4-amino-2-bicyclo[3.1.0]hexanyl]-5-[8-(trifluoromethyl)quinoxalin-5-yl]-5-azaspiro[2.4]heptane-7-carboxamide] | 251 nM
O=C(NC1CC2CCCC(C1)N2)C1CN(c2ccc(C(F)(F)F)c3nccnc23)CC12CC2 (stereo not shown) [Example 10, N-(9-azabicyclo[3.3.1]nonan-3-yl)-5-[8-(trifluoromethyl)quinoxalin-5-yl]-5-azaspiro[2.4]heptane-7-carboxamide] | 245 nM
O=C(NC1CC2CNCC(C2)C1)C1CN(c2ccc(C(F)(F)F)c3nccnc23)CC12CC2 (stereo not shown) [Example 15, N-(3-azabicyclo[3.3.1]nonan-7-yl)-5-[8-(trifluoromethyl)quinoxalin-5-yl]-5-azaspiro[2.4]heptane-7-carboxamide] | 156 nM
O=C(NC1CC2(CCNCC2)C1)C1CN(c2ccc(C(F)(F)F)c3nccnc23)CC12CC2 (stereo not shown) [Example 34, N-(7-azaspiro[3.5]nonan-2-yl)-5-[8-(trifluoromethyl)quinoxalin-5-yl]-5-azaspiro[2.4]heptane-7-carboxamide] | 437 nM
